Results reported in patent US8791132B2, “Compounds and methods for treatment of hypertension” (Medivation Technologies, Inc., priority 2011, dated 2014).
pKi: −log10 of the molar value. Like-named read-outs stand apart in the source and are kept apart here. Values belong to the molecule of their own block, whether it stands above or below them.

Legend:
[1] = biological target: T1, human recombinant adrenergic α2B receptor (Homo sapiens, UniProt P18089); experiment: Radioligand binding, adrenergic α2B ([3H]Rauwolscine); details: for Percentage inhibition of ligand binding, Adrenergic α2B (0.03 μM) / Percentage inhibition of ligand binding, Adrenergic α2B: 0.03 µM
T1 construct: expressed in transfected cells; host or cells: CHO-K1
T1 sequence (P18089 1-450): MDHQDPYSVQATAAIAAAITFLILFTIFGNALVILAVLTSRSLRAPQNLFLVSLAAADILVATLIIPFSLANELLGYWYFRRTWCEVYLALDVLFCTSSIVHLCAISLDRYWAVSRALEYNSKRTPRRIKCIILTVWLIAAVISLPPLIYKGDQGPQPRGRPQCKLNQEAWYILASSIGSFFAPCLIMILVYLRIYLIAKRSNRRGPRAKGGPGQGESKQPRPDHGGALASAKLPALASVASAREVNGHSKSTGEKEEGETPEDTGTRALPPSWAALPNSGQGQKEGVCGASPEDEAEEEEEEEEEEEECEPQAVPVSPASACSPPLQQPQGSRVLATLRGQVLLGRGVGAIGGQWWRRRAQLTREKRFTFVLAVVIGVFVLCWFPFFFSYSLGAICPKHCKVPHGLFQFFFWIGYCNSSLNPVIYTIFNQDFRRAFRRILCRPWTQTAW
In short: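 Values are percent inhibition of specific radioligand binding. The receptor, expressed in CHO-K1 cells, was exposed to 2.5 nM [3H]Rauwolscine at 25° C for 60 min, with 10 μM Prazosin marking non-specific binding.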

[2] = biological target: T2, human recombinant adrenergic α2A receptor (Homo sapiens, UniProt P08913); experiment: Radioligand binding, adrenergic α2A ([3H]MK-912); details: for Percentage inhibition of ligand binding, Adrenergic α2A (0.1 μM) / Percentage inhibition of ligand binding, Adrenergic α2A: 0.1 µM
T2 construct: expressed in transfected cells; host or cells: insect Sf9 cells
T2 sequence (P08913 1-465): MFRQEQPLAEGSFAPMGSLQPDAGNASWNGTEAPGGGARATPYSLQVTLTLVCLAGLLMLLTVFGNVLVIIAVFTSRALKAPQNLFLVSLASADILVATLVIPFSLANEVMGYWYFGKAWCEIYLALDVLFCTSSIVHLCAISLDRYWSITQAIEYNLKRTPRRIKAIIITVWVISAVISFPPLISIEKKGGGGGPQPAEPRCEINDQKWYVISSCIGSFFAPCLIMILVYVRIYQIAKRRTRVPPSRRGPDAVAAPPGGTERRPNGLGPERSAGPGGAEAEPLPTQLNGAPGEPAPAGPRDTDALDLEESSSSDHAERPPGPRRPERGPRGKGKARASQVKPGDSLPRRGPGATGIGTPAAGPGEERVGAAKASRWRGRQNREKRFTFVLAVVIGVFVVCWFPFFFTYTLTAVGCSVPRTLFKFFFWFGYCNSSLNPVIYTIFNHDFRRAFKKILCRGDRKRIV
In short: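 Receptor expressed in Sf9 cells, in 50 mM Tris-HCl pH 7.4, 12.5 mM MgCl2, 2 mM EDTA; compounds incubated with 1 nM [3H]MK-912 for 60 min at 25 °C.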

[3] = biological target: T3, rat adrenergic α1B receptor (Rattus norvegicus, UniProt P15823); experiment: Radioligand binding, adrenergic α1B ([3H]Prazosin); details: for Percentage inhibition of ligand binding, Adrenergic α1B (0.1 μM) / Percentage inhibition of ligand binding, Adrenergic α1B: 0.1 µM
T3 construct: rat adrenergic α1B receptor obtained from Wistar Rat liver; from tissue; host or cells: Wistar rat liver
T3 sequence (P15823 1-515): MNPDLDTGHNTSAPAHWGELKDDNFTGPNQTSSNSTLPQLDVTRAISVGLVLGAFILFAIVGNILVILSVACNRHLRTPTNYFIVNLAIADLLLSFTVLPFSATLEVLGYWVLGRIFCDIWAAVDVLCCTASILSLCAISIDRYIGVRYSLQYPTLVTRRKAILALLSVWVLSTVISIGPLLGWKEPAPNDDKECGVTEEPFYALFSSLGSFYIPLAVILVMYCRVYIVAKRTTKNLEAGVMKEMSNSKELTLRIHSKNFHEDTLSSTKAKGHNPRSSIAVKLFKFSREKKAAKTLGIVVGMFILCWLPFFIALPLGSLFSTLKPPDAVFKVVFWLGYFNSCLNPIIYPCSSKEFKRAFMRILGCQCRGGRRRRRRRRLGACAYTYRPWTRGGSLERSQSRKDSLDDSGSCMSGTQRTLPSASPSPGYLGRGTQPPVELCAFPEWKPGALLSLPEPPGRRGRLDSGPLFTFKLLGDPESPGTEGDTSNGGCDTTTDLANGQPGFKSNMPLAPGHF
In short: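 Specific binding, taken as total minus that remaining with 10 μM phentolamine, is measured after filtration and counting. Rat liver receptor preparation and 0.25 nM [3H]prazosin are incubated with compound in 50 mM Tris-HCl (pH 7.4, 0.5 mM EDTA) at 25° C for 60 min. Activity is reported as percent inhibition.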

[4] = compound at 0.03 μM, [3H]Rauwolscine, repeat datapoints each shown
[5] = read-out: Percentage inhibition of ligand binding, Adrenergic α2B (0.03 μM), compound at 0.03 μM, [3H]Rauwolscine, repeat datapoints each shown
[6] = read-out: Percentage inhibition of ligand binding, Adrenergic α2A (0.1 μM), compound at 0.1 μM, [3H]MK-912, repeat datapoints each shown
[7] = compound at 0.1 μM, [3H]Prazosin, repeat datapoints each shown
[8] = read-out: Percentage inhibition of ligand binding, Adrenergic α1B (0.1 μM), compound at 0.1 μM, [3H]Prazosin, repeat datapoints each shown
[9] = compound at 0.1 μM, [3H]MK-912, repeat datapoints each shown
[10] = compound at 0.03 μM, [3H]Rauwolscine, repeat assays, each datapoint shown
[11] = compound at 0.1 μM, [3H]MK-912, repeat assays, each datapoint shown
[12] = compound at 0.1 μM, [3H]Prazosin, repeat assays, each datapoint shown
[13] = 0.03 μM compound, read-out: Percentage inhibition of ligand binding, Adrenergic α2B
[14] = 0.1 μM compound, read-out: Percentage inhibition of ligand binding, Adrenergic α2A
[15] = 0.1 μM compound, read-out: Percentage inhibition of ligand binding, Adrenergic α1B

Structure (SMILES): C=C(Cn1c2c(c3cc(C)ccc31)CN(C)CC2)c1cccnc1 [compound 132]
inhibition at 0.03 µM [1, 5]: 91% | inhibition at 0.1 µM [2, 6]: 19% | inhibition at 0.1 µM [3, 8]: 28%

Structure (SMILES): Cc1ccc2c(c1)c1c(n2CC(OCC(=O)O)c2ccncc2)CCN2CCCC12 (centres unmarked) [V-15, 2-(2-(10-methyl-2,3,5,6-tetrahydro-1H-indolizino[7,8-b]indol-7(11cH)-yl)-1-(pyridin-4-yl)ethoxy)acetic acid]
inhibition at 0.03 µM [1, 5]: 20% | inhibition at 0.1 µM [2, 6]: 7% | inhibition at 0.1 µM [3, 8]: 4%

Structure (SMILES): Cc1ccc2c(c1)c1c(n2CC(C)(OCC(=O)O)c2cccnc2)CCN(C)C1 (single isomer, unassigned) [V-14a, 2-((1-(2,8-dimethyl-3,4-dihydro-1H-pyrido[4,3-b]indol-5(2H)-yl)-2-(pyridin-3-yl)propan-2-yl)oxy)acetic acid]
Percentage inhibition of ligand binding, Adrenergic α2B (0.03 μM) [1, 4]: 7% | Percentage inhibition of ligand binding, Adrenergic α2A (0.1 μM) [2, 9]: 18% | Percentage inhibition of ligand binding, Adrenergic α1B (0.1 μM) [3, 7]: 0%

Structure (SMILES): Cc1ccc2c(c1)c1c(n2CC(O)c2ccncc2)C(C)N2CCC1C2 (single isomer, unassigned) [38a]
Percentage inhibition of ligand binding, Adrenergic α2B [1, 10]: 35% | Percentage inhibition of ligand binding, Adrenergic α2A [2, 11]: 14% | Percentage inhibition of ligand binding, Adrenergic α1B [3, 12]: 11%

Structure (SMILES): Cc1ccc2c(c1)c1c(n2CC(O)c2ccncc2)C(C)(C)CN(C)C1 (centres unmarked) [compound 71, 1-pyridin-4-yl-2-(2,4,4,8-tetramethyl-1,2,3,4-tetrahydro-pyrido[4,3-b]indol-5-yl)-ethanol]
inhibition at 0.03 µM ([1]; compound at 0.03 μM, [3H]Rauwolscine, repeat assays, each datapoint shown, read-out: Percentage inhibition of ligand binding, Adrenergic α2B): 9% | inhibition at 0.1 µM ([2]; compound at 0.1 μM, [3H]MK-912, repeat assays, each datapoint shown, read-out: Percentage inhibition of ligand binding, Adrenergic α2A): 11% | inhibition at 0.1 µM ([3]; compound at 0.1 μM, [3H]Prazosin, repeat assays, each datapoint shown, read-out: Percentage inhibition of ligand binding, Adrenergic α1B): 11%

Structure (SMILES): OC(Cn1c2c(c3cccnc31)CN1CCCC1C2)c1ccncc1 (single isomer, unassigned) [37c]
Percentage inhibition of ligand binding, Adrenergic α2B [1, 10]: 0% | Percentage inhibition of ligand binding, Adrenergic α2A [2, 11]: 6% | Percentage inhibition of ligand binding, Adrenergic α1B [3, 12]: 2%

Second part, the molecule after the results:

Percentage inhibition of ligand binding, Adrenergic α2B (0.03 μM) [1, 4]: 61% | pKi ([1]; read-out: Ki α2B): 8.03 | inhibition at 0.03 µM [1, 5]: 58% | inhibition at 0.1 µM ([1]; read-out: Percentage inhibition of ligand binding, Adrenergic α2B (0.1 μM), compound at 0.1 μM, [3H]Rauwolscine, repeat datapoints each shown): 82% | inhibition at 0.1 µM [2, 6]: 19% | Percentage inhibition of ligand binding, Adrenergic α1B (0.1 μM) [3, 7]: 93% | inhibition at 0.03 µM ([3]; read-out: Percentage inhibition of ligand binding, Adrenergic α1B (0.03 μM), compound at 0.03 μM, [3H]Prazosin, repeat datapoints each shown): 79% | inhibition at 0.1 µM [3, 8]: 91%
Structure (SMILES): Cc1cnc2c(c1)c1c(n2CCc2ccc(C(N)=O)nc2)CCN2CCCC12 (centres unmarked) [II-243, 5-[2-(9-methyl-1,2,3,4,5,10c-hexahydro-3a,6,7-triaza-cyclopenta[c]fluoren-6-yl)-ethyl]-pyridine-2-carboxylic acid amide]

inhibition at 0.03 µM [1, 5]: 72% | inhibition at 0.1 µM [2, 6]: 3% | inhibition at 0.1 µM [3, 8]: 53%
Structure (SMILES): Cc1ccc2c(c1)c1c(n2CC(O)c2cnc[nH]2)CCN2CCCC12 (centres unmarked) [II-140, 1-(1H-imidazol-5-yl)-2-(10-methyl-2,3,5,6-tetrahydro-1H-indolizino[7,8-b]indol-7(11cH)-yl)ethanol]

Percentage inhibition of ligand binding, Adrenergic α2B (0.03 μM) [1, 4]: 88% | Percentage inhibition of ligand binding, Adrenergic α2A (0.1 μM) [2, 9]: 71% | Percentage inhibition of ligand binding, Adrenergic α1B (0.1 μM) [3, 7]: 64%
Structure (SMILES): Cc1cc(C)c2c(c1)c1c(n2CC(O)c2ccncc2)CCN2CCCC12 (single isomer, unassigned) [II-125d, 2-(8,10-dimethyl-2,3,5,6-tetrahydro-1H-indolizino[7,8-b]indol-7(11cH)-yl)-1-(pyridin-4-yl)ethanol]

inhibition at 0.03 µM [1, 5]: -4% | inhibition at 0.1 µM [2, 6]: 81% | inhibition at 0.1 µM [3, 8]: -7%
Structure (SMILES): Cc1ccc(CCn2c3c(c4c(Br)ccc(Br)c42)CN(C)CC3)cn1 [II-251]

Percentage inhibition of ligand binding, Adrenergic α2B [1, 10]: 102% | Percentage inhibition of ligand binding, Adrenergic α2A [2, 11]: 49% | Percentage inhibition of ligand binding, Adrenergic α1B [3, 12]: 26%
Structure (SMILES): Cc1ccc2c(c1)c1c(n2CC(O)c2ccncc2)CC2CCCCN2C1 (racemic) [75d]

inhibition at 0.03 µM [1, 13]: 25% | inhibition at 0.1 µM [2, 14]: -2% | inhibition at 0.1 µM [3, 15]: 16%
Structure (SMILES): Cc1ccc2c(c1)c1c(n2CC(O)C2CCCCC2)CCN(C)C1 (centres unmarked) [II-91]

Percentage inhibition of ligand binding, Adrenergic α2B (0.03 μM) [1, 4]: 18% | Percentage inhibition of ligand binding, Adrenergic α2A (0.1 μM) [2, 9]: 6% | Percentage inhibition of ligand binding, Adrenergic α1B (0.1 μM) [3, 7]: 8%
Structure (SMILES): Cc1ccc2c(c1)c1c(n2CC(CC(O)C(C)(C)C)c2ccncc2)CCN(C)C1 (single isomer, unassigned) [II-227b, 6-(2,8-dimethyl-1,2,3,4-tetrahydro-pyrido[4,3-b]indol-5-yl)-2,2-dimethyl-5-pyridin-4-yl-hexan-3-ol]

Percentage inhibition of ligand binding, Adrenergic α2B ([1]; 0.03 μM compound): 33% | Percentage inhibition of ligand binding, Adrenergic α2A ([2]; 0.1 μM compound): 17% | Percentage inhibition of ligand binding, Adrenergic α1B ([3]; 0.1 μM compound): 8%
Structure (SMILES): Cc1ccc2c(c1)c1c(n2CC(c2ccc(F)cc2)N(C)C)CCN(C)C1 (single isomer, unassigned) [II-14b, 2-(2,8-dimethyl-3,4-dihydro-1H-pyrido[4,3-b]indol-5(2H)-yl)-1-(4-fluorophenyl)-N,N-dimethylethanamine]

Percentage inhibition of ligand binding, Adrenergic α2B (0.03 μM) [1, 4]: 37% | Percentage inhibition of ligand binding, Adrenergic α2A (0.1 μM) [2, 9]: 8% | Percentage inhibition of ligand binding, Adrenergic α1B (0.1 μM) [3, 7]: 9%
Structure (SMILES): CNC(Cn1c2c(c3cc(C)ccc31)CN(C)CC2)c1ccncc1 (single isomer, unassigned) [151b, 2-(1,2,3,4-tetrahydro-2,8-dimethylpyrido[4,3-b]indol-5-yl)-N-methyl-1-(pyridin-4-yl)ethanamine]

inhibition at 0.03 µM [1, 13]: 9% | inhibition at 0.1 µM [2, 14]: 3% | inhibition at 0.1 µM [3, 15]: 4%
Structure (SMILES): Cc1ccc2c(c1)c1c(n2CC(C)(O)c2ccc(O)nc2)CCN(C)C1 (centres unmarked) [II-80, 5-[2-(2,8-dimethyl-1,2,3,4-tetrahydro-pyrido[4,3-b]indol-5-yl)-1-hydroxy-1-methyl-ethyl]-pyridin-2-ol]

inhibition at 0.03 µM [1, 5]: 36% | inhibition at 0.1 µM [2, 6]: 7% | Percentage inhibition of ligand binding, Adrenergic α1B (0.1 μM) [3, 7]: 60%
Structure (SMILES): Cc1ccc2c(c1)c1c(n2CC(C)(O)c2ccc(C(N)=O)nc2)CCN(C)C1 (single isomer, unassigned) [II-136a, 5-(1-(1,2,3,4-tetrahydro-2,8-dimethylpyrido[4,3-b]indol-5-yl)-2-hydroxypropan-2-yl)pyridine-2-carboxamide]
